“Also recorded” adds a separate entry of the source.

We go through 4 molecules from patent US8329617B2, “Compositions and methods for synergistic manipulation of plant and insect defenses” (Plant Bioscience Limited, priority 2007, dated 2012).

Test [1] relates to Myzus persicae, US1L. Nature of the test: Bioassay: M. persicae protein on four pepper plants treated with cis-jasmone and PBO (1, 5 or 10 adults per plant). It is filed as in vivo. To be noted: for Av. Total Insect Protein μg: Bioassay, M. persicae (US1L), average of weeks 1 to 3; for μg (Av) Total Protein (M. persicae): four pepper plants, 7 days. How it is done: (§1) In all bioassay experiments the control plants were sprayed with deionised water. Initially seven treatments were used (Table 1) to test all chemical variables. All treatments were applied hydraulically with a spray simulator after which the plants were separated according to treatment (with cis-jasmone controls being separated) and left for 2 hours prior to insect application.
Analysis of protein in each treatment was conducted using Bradford Reagent: the data were analysed using the computer programme ‘GraFit’ (Erithacus software, Berkeley). To calculate the calibration curve a single logarithmic curve was used with regression analysis taking the values of the treatment wells (averages of the three readings taken: technical replicates). […]
To investigate developmental/fecundity effects of cis-jasmone+/−PBO E on Myzus persicae when applied to sweet peppers, one adult was added to the plants. Aphids were brushed from all plants and each leaf checked individually to ensure none remained. The aphid mass for each treatment was assessed for total protein (total from all four plants in the treatment) using Bradford reagent. The amount of aphid protein present on the plants 7 days after treatment was measured.
Myzus persicae was applied to sweet peppers at the rate of five adults were added per plant. Aphids were brushed from all plants and each leaf checked individually to ensure none remained. The aphid mass for each treatment was assessed for total protein (total from all four plants in the treatment) using Bradford reagent. The amount of aphid protein present on the plants 7 days after treatment was measured (for further information see Example 3).
Myzus persicae were applied to sweet peppers at the rate of ten adults per plant. Aphids were brushed from all plants and each leaf checked individually to ensure none remained. The aphid mass for each treatment was assessed for total protein (total from all four plants in the treatment) using Bradford reagent. The amount of aphid protein present on the plants 7 days after treatment was measured (for further information see Example 3).

Test [2] relates to whitefly (B. tabaci). Nature of the test: Bioassay: B. tabaci pupae protein on cotton and tomato plants treated with BABA and/or PBO. The class given is in vivo, Bemisia tabaci. Particulars: 3 mM BABA root drench, PBO E spray. How it is done: In all bioassay experiments the control plants were sprayed with deionised water. Initially seven treatments were used (Table 1b) to test all chemical variables. […] Analysis of protein in each treatment was conducted using Bradford Reagent: the data were analysed using the computer programme ‘GraFit’ (Erithacus software, Berkeley). To calculate the calibration curve a single logarithmic curve was used with regression analysis taking the values of the treatment wells (averages of the three readings taken: technical replicates). Laboratory tests were undertaken to compare effects of combined and single treatments of PBO and BABA on control of aphid (M. persicae) on potato, pepper, and black mustard and whitefly (B. tabaci) on cotton and tomato. All tests included untreated and blank (water) controls, and both single and combined applications of PBO and BABA. […] Adults were added to the plant 2 days after treatment, and removed after 24 h. The eggs laid were then left for 16-18 days until they reached the pupal stage. The total pupal protein on the plant was tested using the Bradford reagent.

Test [3] relates to aphid (M. persicae). Put plainly: Bioassay: M. persicae protein on potato, pepper and black mustard plants treated with BABA and/or PBO. To be noted: 3 adult apterous aphids per plant, 3 mM BABA root drench, PBO E spray, 7 days. It is filed as in vivo, Myzus persicae. Here is the method:
In all bioassay experiments the control plants were sprayed with deionised water. Initially seven treatments were used (Table 1b) to test all chemical variables. […] Analysis of protein in each treatment was conducted using Bradford Reagent: the data were analysed using the computer programme ‘GraFit’ (Erithacus software, Berkeley). To calculate the calibration curve a single logarithmic curve was used with regression analysis taking the values of the treatment wells (averages of the three readings taken: technical replicates). Laboratory tests were undertaken to compare effects of combined and single treatments of PBO and BABA on control of aphid (M. persicae) on potato, pepper, and black mustard and whitefly (B. tabaci) on cotton and tomato. All tests included untreated and blank (water) controls, and both single and combined applications of PBO and BABA. […] To investigate developmental/fecundity effects of BABA+/−PBO E (see Table 1) on Myzus persicae when applied to plants, adults were added to the plants and then using Bradford reagent, the amount of aphid protein present on the plants 7 days after treatment was measured. Esterase levels were also tested after the same interval to check for the possible induction of metabolic enzymes when using BABA. Aphids were brushed from all plants and each leaf checked individually to ensure none remained. The aphid mass for each treatment was weighed before total protein was assessed (total from all five plants in the treatment).

In test [4] the test system is first instar aphids. Nature of the test: BABA root drench concentration series, aphid population growth on brassica and potato. The class given is in vivo. To be noted: series 1-10 mM, aphids weighed after 1 week. Here is the method:
Using example crops of brassica [Brassica nigra] and potato [Solanum tuberosum]; BABA was added as a drench to the roots to ‘prime’ the plants in a series of concentrations (1-10 mM). The plants were artificially infested with a set number of first instar aphids (characterised as insecticide-resistant or -susceptible) and left for 1 week. At the end of this period, all aphids were removed and weighed to determine the growth of the population. This identified the optimal concentration of BABA to use to produce maximum secondary metabolites within the plant. All concentrations were lower than that which could cause direct damage to the crop. 3 mM BABA was identified as optimal for the conditions employed.

The test system of test [5] is Bemisia tabaci, GUA MIX. Put plainly: Glasshouse simulator trial: B. tabaci pupae protein on tomato plants treated with cis-jasmone and PBO. It is filed as in vivo. To be noted: for μg (Av) Total Protein (B. tabaci pupae): simulator, ten tomato plants per treatment, ten adult whiteflies per plant, ~16 days. How it is done:
as §1
(§2) Analysis of protein in each treatment was conducted using Bradford Reagent: the data were analysed using the computer programme ‘GraFit’ (Erithacus software, Berkeley). To calculate the calibration curve a single logarithmic curve was used with regression analysis taking the values of the treatment wells (averages of the three readings taken: technical replicates).
(§3) A new method for the investigation of the development of whitefly to the pupal stage on tomatoes and cotton was used. […] These were checked for protein after ˜16 days using Bradford reagent.
(§4) Adults were added to the plant 2 h after treatment, and removed after 24 h. The eggs laid were then left for 16-18 days until they reached the pupal stage. The total pupal protein on the plant was tested using the Bradford reagent.
As described above 10 adult females were released on to each tomato plant, ten/treatment and after ˜16 days pupae were removed using a scalpel blade. These were checked for total protein using Bradford reagent. Plants were put into glasshouse simulators (one/treatment) and kept at 28° C., 12 L: […] and 80% R.H.

For test [6], the system named is Myzus persicae, US1L. Put plainly: Glasshouse simulator trial: M. persicae protein on pepper plants treated with cis-jasmone and PBO. The class given is in vivo. To be noted: for μg (Av) Total Protein (M. persicae): simulator, 25 pepper plants per treatment, three adult apterous aphids per plant, 7 days. How it is done: as §1, §2
To investigate developmental/fecundity effects of cis-jasmone+/−PBO (see Table 1) on Myzus persicae when applied to sweet peppers, adults were added to the plants and then using Bradford reagent, the amount of aphid protein present on the plants 7 days after treatment was measured. Esterase levels were also tested after the same interval to check for the possible induction of metabolic enzymes when using cis-jasmone. Aphids were brushed from all plants and each leaf checked individually to ensure none remained. The aphid mass for each treatment was weighed before total protein was assessed (total from all […] plants in the treatment).
Myzus persicae were applied to sweet peppers at the rate of three adults per plant. Aphids were brushed from all plants and each leaf checked individually to ensure none remained. The aphid mass for each treatment was assessed for total protein (total from all 25 plants in the treatment) using Bradford reagent. The amount of aphid protein present on the plants 7 days after treatment was measured. Plants were put into glasshouse simulators (one/treatment) and kept at 28° C., 12 L: […] and 80% R.H.

Test [7] concerns Bemisia tabaci, GUA MIX. Nature of the test: Bioassay: B. tabaci pupae protein on one tomato plant treated with cis-jasmone and PBO. It is filed as in vivo. To be noted: for μg (Av) Total Protein (B. tabaci pupae): one tomato plant, ten adult whiteflies, ~16 days. How it is done: as §1, §2, §3, §4
For test [8], the system named is B. tabaci. Put plainly: B. tabaci pupae protein on cotton plants treated with PBO and/or microencapsulated cis-jasmone. Particulars: five cotton plants per treatment, 5 adult female whiteflies per plant, ~16 days. It is filed as in vivo, Bemisia tabaci. How it is done: as §3, §4
In test [9] the test system is Aphis gossypii. Put plainly: A. gossypii protein on cotton plants treated with propyl gallate and cis-jasmone. Particulars: A. gossypii on cotton. The class given is in vivo.
Where [10] appears, read: five adult apterous aphids per plant, week 1.
The mark [11] stands for this setting: five adult apterous aphids per plant, week 2.
[12] abbreviates: five adult apterous aphids per plant, week 3.
Where [13] appears, read: one adult apterous aphid per plant, week 1.
[14] abbreviates: one adult apterous aphid per plant, week 2.
Setting [15] is: one adult apterous aphid per plant, week 3.
Setting [16] is: ten adult apterous aphids per plant, week 1.
Where [17] appears, read: ten adult apterous aphids per plant, week 2.
[18] abbreviates: ten adult apterous aphids per plant, week 3.

For “2-(2-butoxyethoxy)ethyl 6-propylpiperonyl ether [PBO T + Acetone]”, the entries for the “Av. Total Insect Protein μg” value in test [1] (1 adult/plant), in test [1] (5 adults/plant) and in test [1] (10 adults/plant) were 11.610 µg, 20.370 µg and 34.830 µg, respectively. For the same molecule, the “μg (Av) Total Protein (M. persicae)” value in [1] (setting [10]) was 22.30 µg; in [1] (setting [11]), 16.50 µg; in [1] (setting [12]), 22.30 µg; in test [1] (setting [13]), 12.23 µg; in test [1] (setting [14]), 12.30 µg; in test [1] (setting [15]), 10.30 µg. Further, the “μg (Av) Total Protein (M. persicae)” value was 37.68 µg in test [1] (setting [16]), 33.6 µg in test [1] (setting [17]) and 33.2 µg in [1] (setting [18]).
For `CC(N)CC(=O)O` (stereo not drawn) [BABA, beta aminobutyric acid], the “Protein WF (Av)” value in test [2] (cotton plants, ~16 days, week 1) was found to be 0.1 µg; in test [2] (cotton plants, ~16 days, week 2), 0.2 µg; in [2] (cotton plants, ~16 days, week 3), 0.2 µg; in [2] (tomato plants, week 1) it was 0.1 µg; in test [2] (tomato plants, week 2) it was 0.23 µg; in [2] (tomato plants, week 3), 0.15 µg. Further, the “Protein A (Av)” value stood at 14.56 µg in test [3] (five black mustard plants, week 1); 15.10 µg in test [3] (five black mustard plants, week 2); 14.10 µg in test [3] (five black mustard plants, week 3); 15.10 µg in test [3] (five pepper plants, week 1); 16.10 µg in test [3] (five pepper plants, week 2); 15.00 µg in test [3] (five pepper plants, week 3). For the same molecule, the “Protein A (Av)” value in test [3] (five potato plants, week 1) was 7.80 µg; in test [3] (five potato plants, week 2), 7.90 µg; in [3] (five potato plants, week 3) it was 8.30 µg. In test [4], the “optimal concentration of BABA” value is recorded as 3 mM.
As for `CC/C=C\CC1=C(C)CCC1=O` [CJ, cis-jasmone], the “Av. Total Insect Protein μg” value in [5] (Simulator, Bemisia tabaci (GUA MIX) on Tomato (Carousel), average of weeks 1 to 3) was 0.104 µg; in test [6] (Simulator, M. persicae (US1L) on Pepper (BellBoy), average of weeks 1 to 3) it was 13.842 µg; in [1] (1 adult/plant), 7.690 µg; in test [1] (5 adults/plant) it was 11.330 µg; in test [1] (10 adults/plant) it was 25.210 µg; in [7] (Bioassay, Bemisia tabaci (GUA MIX), average of weeks 1 to 3) it was 0.167 µg. The “μg (Av) Total Protein (B. tabaci pupae)” value is 0.109 µg in test [5] (week 1); 0.102 µg in test [5] (week 2); 0.100 µg in test [5] (week 3); 0.1 µg in test [7] (week 1); 0.2 µg in test [7] (week 2); 0.2 µg in test [7] (week 3). Moreover, the “μg (Av) Total Protein (M. persicae)” value in test [6] (week 1) was 13.82 µg; in test [6] (week 2), 13.8 µg; in test [6] (week 3), 13.9 µg; in test [1] (setting [10]), 11.00 µg; in test [1] (setting [11]), 11.99 µg; in test [1] (setting [12]) it was 11.00 µg. The “μg (Av) Total Protein (M. persicae)” value in test [1] (setting [13]) was 11.00 µg; in test [1] (setting [14]) it was 3.27 µg; in [1] (setting [15]), 8.80 µg; in test [1] (setting [16]), 25.14 µg; in test [1] (setting [17]), 25.4 µg; in test [1] (setting [18]) it was 25.1 µg. Further, the figures for the “Protein WF (Av)” value in [8] (week 1) and in [8] (week 2) were 0.03 µg and 0.06 µg, respectively.
For `CCCOC(=O)c1cc(O)c(O)c(O)c1` [propyl gallate, Propyl 3,4,5-trihydroxybenzoate], in test [9], the “effect of propyl gallate on efficacy of microencapsulated cis-Jasmone (in words)” value is listed as “significantly (p<0.05) improves the efficacy of microencapsulated cis-Jasmone; also recorded: potentiates microencapsulated cis-Jasmone at least as well as PBO”.
